In US9096544B2, “Therapeutic compounds” (Wayne State University, priority 2009, dated 2015):

What was measured:
Capan-2 cells = experiment: Test I: apoptosis of Capan-2 pancreatic cancer cells (Annexin V-FITC/PI); type: cell-based; conditions: 1 μM, 48 h
Protocol: (§1) Pancreatic cancer cell lines (COLO357, PANC-1, Capan-2, AsPc-1 cells and MiaPaCa-2 cells obtained from American Type Culture Collection; ATCC, Rockville, Md.) were treated with 1 μM 3-Cl-AHPC and compound 16 for various times. Apoptosis in cells were analyzed by flow cytometry using Annexin V-FITC binding together with propidium iodide (PI) staining (Annexin V-FITC apoptosis Detection Kit 1, BD Biosciences, San Diego, Calif.). Data acquisition was done on a FACS Calibur flow cytometer (BD) and analyzed with CellQuest software (BD Biosciences). 3-Cl-AHPC and compound 16 mediated inhibition of cell growth were determined by 3-(4,5-dimethylthiazol-2-yl)-2,5-diphenyltetrazolium bromide (MTT) assay. The cells were seeded on 96-well plates at a density of 4×10^4 cells/well in a volume of 200 μl culture medium. 1 μM AHP3 and 3-Cl-AHPC in DMSO (final concentration 0.1%) were added to the cells for various times. […] After discarding the medium, MTT precipitates were solubilized with 200 μl DMSO and the plates read on a BioTeK Synergy HT (BioTeK Instrument Inc., Vermont) at an absorbance 570 nm. […] The spheroids were stained with acridine orange/ethidium bromide staining and immediately visualized and photographed with fluorescence microscope (OLYMPUS CKX41). […] Then spheroids were visualized and photographed with a fluorescence microscope.

FFMA-AML cells = experiment: Test B: apoptosis of FFMA-AML cells (acridine orange/ethidium bromide, nuclear fragmentation); type: cell-based, human; conditions: for EC50: Homo sapiens, nuclear fragmentation, FIG. 2A/B (96 h), read-out: ED50 of apoptosis induction
Protocol: FIG. 2 illustrates apoptosis induction in FFMA-AML and TF(v-SRC) cells by 3-Cl-AHPC and compound 16. Cells were seeded at 1×10^4 cells/ml, grown for 24 h and then exposed to 1 μM compound 16 or 3-Cl-AHPC A) at various concentrations of the compound for 96 h and B) for increasing times of exposure. C) Induction of apoptosis by 3-Cl-AHPC, all-trans-retinoic acid, 9-cis-retinoic acid and TTNPB in FFMA-AML and TF(v-SRC) cells. The percentage of apoptotic cells was determined using acridine orange and ethidium bromide staining to determine nuclear fragmentation as described in the general biochemical and pharmacological materials and methods. The error bars represent the mean of three separate determinations +/− the standard deviation (SD).
FFMA-AML cells were obtained from a patient with a diagnosis of AML as indicated by the immunophenotyping described in Table 1. This patient was refractory to the chemotherapy regimens consisting of cytosine arabinoside given with daunomycin as well as high-dose cytosine arabinoside. Peripheral blood samples were obtained from the patient utilizing a Wayne State University Institutional Review Board approved protocol and the leukemic blasts were isolated utilizing Ficoll hypaque. […]
Apoptosis of cells was determined by (1) acridine orange and ethidium bromide-staining to assess cells with nuclear fragmentation and chromatin condensation as previously described (Farhana L. et al., Cancer Res. 2006; 65:4909-4917) and (2) flow cytometry assessing Annexin V-FITC binding together with propidium iodide staining (Annexin V-FITC apoptosis Detection kit 1, BD Biosciences, San Diego, Calif.). Data acquisition was done on a FACS Calibur flow cytometer (BD) and analyzed with CellQuest software. […]

[1] = tested on: pancreatic cancer stem cells (CD44+/CD24+ cells obtained from PANC-1, Capan-2 and MiaPaCa-2 cells); experiment: Test J: spheroid formation by CD44+/CD24+ pancreatic cancer stem cells; type: cell-based
Protocol: Apoptosis and Growth Inhibition of Pancreatic Cancer Stem Cells (Obtained from PANC-1, Capan-2 and MiaPaCa-2 Cells) by Compound 16 and 3-Cl-AHPC.
Cells were grown to 70-80% confluence and then trypsinised and washed with sorting buffer (1×PBS, 5% FCS). The cells were resuspended with […] sorting buffer and incubated with 15-20 μl anti-CD24-FITC, anti-CD44-PE primary antibodies for 30 min at ice. The cells were washed and resuspended in 500 μl of sorting buffer and sorted using FACSAria system (BD Immunocytochemistry Systems, Franklin lakes, NJ).
The sorted CD44^+/CD24^+ cells were suspended in serum-free stem cell medium containing DMEM/F12 (1:1) supplemented with B27 (Life Technologies, Gaithersburg, Md.), 20 ng/ml EGF (Biomol International, Plymouth, Pa.)), 20 ng/ml fibroblast growth factor (Biomol International, Plymouth, Pa.), and 100 μg/ml gentamycin. Approximately 150-200 cells per well were seeded in an ultra low-attachment 96-well plate (Corning Inc, Lowell, Mass.). 3-Cl-AHPC and compound 16 were added the day after cells were plated or after 7 days of spheroid formation. Spheriods were photographed and measured utilizing a Olympus microscope (OLYMPUS CKX41) and Olympus microscope digital camera with DP2-BSW software (Olympus soft imaging solutions GmbH, Germany).

AsPc-1 cells = experiment: Test I: growth inhibition of AsPc-1 cells (MTT); type: cell-based; conditions: 1 μM
Protocol: as §1

## O=C(O)C=Cc1ccc(-c2ccc(O)c(C34CC5CC(CC(C5)C3)C4)c2)c(Cl)c1 [Compound 3-Cl-AHPC, 4-[3-(1-adamantyl)-4-hydroxyphenyl]-3-chlorocinnamic acid, reference compound]
Capan-2 cells
  cells in which induction of apoptosis was noted: 50%
FFMA-AML cells; FIG. 2C, retinoid values over that noted with the vehicle
  cells displaying apoptosis: 80%
FFMA-AML cells
  EC50: 370 nM
[1]
  spheroid formation by CD24+/CD44+ cells: inhibited their ability to form spheroids
AsPc-1 cells
  inhibition of growth: significant inhibition of growth

## O=C(O)/C=C/c1cnc(-c2ccc(O)c(C34CC5CC(CC(C5)C3)C4)c2)nc1 [Compound 16, (E)-3-[2-(3-(1-Adamantyl)-4-hydroxyphenyl)-5-pyrimidinyl]-2-propenoic acid]
Capan-2 cells
  cells in which induction of apoptosis was noted: 50%
FFMA-AML cells
  EC50: 320 nM
[1]
  spheroid formation by CD24+/CD44+ cells: inhibited their ability to form spheroids
AsPc-1 cells
  inhibition of growth: significant inhibition of growth
